Data as given in PubChem BioAssay AID330 (DTP/NCI, 2004).
Values joined by “and” are separate entries in the source; they are usually repeats but may differ in a detail not shown here. Equal entries are not always repeated. Inconclusive results and toxic doses are left out.

System: P388 leukemia ip, CD2F1 mice, survival T/C
Experiment: NCI In Vivo Anticancer Drug Screen. Data for tumor model P388 Leukemia (intraperitoneal) in CD2F1 (CDF1) mice
Settings: endpoint: median survival time, higher = longer survival
Method in brief: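 Mice carrying the transplanted tumor received test compound or vehicle. Survival was recorded in each group, and the value is the treated-group measurement divided by that of the vehicle-treated control group.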

[1] = dose: 50.0 mg/kg/injection, schedule: Q01DX005 (ip), vehicle: saline with Tween-80
[2] = dose: 50.0 mg/kg/injection, schedule: Q01DX005 (ip), vehicle: saline
[3] = dose: 25.0 mg/kg/injection, schedule: Q01DX009 (ip), vehicle: saline with Tween-80
[4] = dose: 50.0 mg/kg/injection, schedule: Q01DX009 (ip), vehicle: saline with Tween-80
[5] = dose: 100.0 mg/kg/injection, schedule: Q01DX009 (ip), vehicle: saline with Tween-80
[6] = dose: 100.0 mg/kg/injection, schedule: Q04DX003 (ip), vehicle: saline with Tween-80
[7] = dose: 50.0 mg/kg/injection, schedule: Q01DX009 (ip), vehicle: saline
[8] = dose: 100.0 mg/kg/injection, schedule: Q01DX009 (ip), vehicle: saline
[9] = dose: 200.0 mg/kg/injection, schedule: Q01DX009 (ip), vehicle: saline with Tween-80
[10] = dose: 12.5 mg/kg/injection, schedule: Q01DX009 (ip), vehicle: Klucel (hydroxypropylcellulose) (HPC)
[11] = dose: 25.0 mg/kg/injection, schedule: Q01DX009 (ip), vehicle: Klucel (hydroxypropylcellulose) (HPC)
[12] = dose: 50.0 mg/kg/injection, schedule: Q01DX009 (ip), vehicle: Klucel (hydroxypropylcellulose) (HPC)

## C=C1C(=O)C23OC2C1CCC(=O)C1(C)CC[C@H](OC(C)=O)C(C)(C)[C@H]1CC3=O (stereo partly drawn)
dose: 2.5 mg/kg/injection, schedule: Q01DX005 (ip), vehicle: Klucel (hydroxypropylcellulose) (HPC)
  T/C: 111 % of control
dose: 5.0 mg/kg/injection, schedule: Q01DX005 (ip), vehicle: Klucel (hydroxypropylcellulose) (HPC)
  T/C: 107 % of control
dose: 10.0 mg/kg/injection, schedule: Q01DX005 (ip), vehicle: Klucel (hydroxypropylcellulose) (HPC)
  T/C: 107 % of control

## CCN(CC)CCNc1ncnc2c1cnn2C
dose: 12.5 mg/kg/injection, schedule: Q01DX005 (ip), vehicle: saline
  T/C: 106 % of control
dose: 25.0 mg/kg/injection, schedule: Q01DX005 (ip), vehicle: saline
  T/C: 106 % of control
[1]
  T/C: 99 % of control
[2]
  T/C: 106 % of control

## C=CCCc1ccccc1/C=N/NS(=O)(=O)c1ccc(C)cc1
dose: 100.0 mg/kg/injection, schedule: Q01DX001 (ip), vehicle: saline with Tween-80
  T/C: 97 % of control
dose: 200.0 mg/kg/injection, schedule: Q01DX001 (ip), vehicle: saline with Tween-80
  T/C: 88 % of control
dose: 400.0 mg/kg/injection, schedule: Q01DX001 (ip), vehicle: saline with Tween-80
  T/C: 101 % of control

## O=C(O)c1cccc([N+](=O)[O-])c1C(=O)c1ccccc1
[3]
  T/C: 100 % of control
[4]
  T/C: 95 % of control
dose: 50.0 mg/kg/injection, schedule: Q04DX003 (ip), vehicle: saline with Tween-80
  T/C: 91 % of control
[5]
  T/C: 100 % of control
[6]
  T/C: 95 % of control

## C=CO/C(C)=C(\[Se]c1ccccc1)C(C)=O
[7]
  T/C: 99 % of control
[8]
  T/C: 100 % of control
dose: 200.0 mg/kg/injection, schedule: Q01DX009 (ip), vehicle: saline
  T/C: 104 % of control

## Cn1c2ccccc2c2cc3c(cc21)C(=O)OC3=O
dose: 3.12 mg/kg/injection, schedule: Q01DX005 (ip), vehicle: Klucel (hydroxypropylcellulose) (HPC)
  T/C: 100 % of control
dose: 6.25 mg/kg/injection, schedule: Q01DX005 (ip), vehicle: Klucel (hydroxypropylcellulose) (HPC)
  T/C: 93 % of control
dose: 12.5 mg/kg/injection, schedule: Q01DX005 (ip), vehicle: Klucel (hydroxypropylcellulose) (HPC)
  T/C: 90 % of control
dose: 50.0 mg/kg/injection, schedule: Q01DX005 (ip), vehicle: Klucel (hydroxypropylcellulose) (HPC)
  T/C: 88 % of control
dose: 100.0 mg/kg/injection, schedule: Q01DX005 (ip), vehicle: Klucel (hydroxypropylcellulose) (HPC)
  T/C: 90 % of control

## O=[N+]([O-])c1cc(S(=O)(=O)NCc2ccco2)ccc1N/N=C/c1ccccn1
[9]
  T/C: 86 % of control

## c1ccc(-c2nc(-c3ccccc3)c3ccccc3n2)cc1
[3]
  T/C: 104 % of control
[4]
  T/C: 114 % of control
[5]
  T/C: 114 % of control

## COC1NC(=S)N(C2CCCCC2)C1(C)C (stereo not drawn)
dose: 50.0 mg/kg/injection, schedule: Q01DX009 (ip), vehicle: suspension in saline
  T/C: 97 % of control
dose: 100.0 mg/kg/injection, schedule: Q01DX009 (ip), vehicle: suspension in saline
  T/C: 97 % of control
dose: 200.0 mg/kg/injection, schedule: Q01DX009 (ip), vehicle: suspension in saline
  T/C: 100 % of control

## [Se]=[Nb]=[Se]
dose: 60.0 mg/kg/injection, schedule: Q01DX005 (ip), vehicle: acid diluted with saline
  T/C: 89 % of control
dose: 120.0 mg/kg/injection, schedule: Q01DX005 (ip), vehicle: acid diluted with saline
  T/C: 93 % of control
dose: 240.0 mg/kg/injection, schedule: Q01DX005 (ip), vehicle: acid diluted with saline
  T/C: 90 % of control

## COc1ccccc1NC(=O)N(CCCl)N=O
dose: 3.0 mg/kg/injection, schedule: Q04DX003 (ip), vehicle: saline with Tween-80
  T/C: 154 % of control
dose: 6.0 mg/kg/injection, schedule: Q04DX003 (ip), vehicle: saline with Tween-80
  T/C: 168 % of control
dose: 6.25 mg/kg/injection, schedule: Q01DX009 (ip), vehicle: saline with Tween-80
  T/C: 163 % of control
dose: 6.25 mg/kg/injection, schedule: Q04DX003 (ip), vehicle: saline with Tween-80
  T/C: 168 % of control
dose: 12.5 mg/kg/injection, schedule: Q01DX009 (ip), vehicle: saline with Tween-80
  T/C: 200 % of control
dose: 12.5 mg/kg/injection, schedule: Q04DX003 (ip), vehicle: saline with Tween-80
  T/C: 190 % of control
dose: 16.5 mg/kg/injection, schedule: Q04DX003 (ip), vehicle: saline with Tween-80
  T/C: 152 % of control
[3]
  T/C: 95 % of control
dose: 25.0 mg/kg/injection, schedule: Q04DX003 (ip), vehicle: saline with Tween-80
  T/C: 272 % of control
dose: 37.5 mg/kg/injection, schedule: Q04DX003 (ip), vehicle: saline with Tween-80
  T/C: 123 % of control

## O=C(O)c1cc(CCCC(=O)c2cc(C(=O)O)c(O)c3ccccc23)c2ccccc2c1O
dose: 100.0 mg/kg/injection, schedule: Q04DX002 (ip), vehicle: Klucel (hydroxypropylcellulose) (HPC)
  T/C: 90 % of control

## O=c1c2ccccc2nc(-c2ccccc2)n1O
[10]
  T/C: 103 % of control and 112 % of control
[11]
  T/C: 118 % of control and 94 % of control
[12]
  T/C: 120 % of control
dose: 100.0 mg/kg/injection, schedule: Q01DX009 (ip), vehicle: Klucel (hydroxypropylcellulose) (HPC)
  T/C: 94 % of control
dose: 200.0 mg/kg/injection, schedule: Q01DX009 (ip), vehicle: Klucel (hydroxypropylcellulose) (HPC)
  T/C: 91 % of control

## COc1ccc(C)cc1NC(=O)Sc1ccc(Cl)cc1
dose: 25.0 mg/kg/injection, schedule: Q01DX005 (ip), vehicle: saline with Tween-80
  T/C: 110 % of control and 115 % of control
dose: 50.0 mg/kg/injection, schedule: Q01DX005 (ip), vehicle: saline + Tween-80 + alcohol
  T/C: 117 % of control
[1]
  T/C: 120 % of control and 123 % of control
dose: 100.0 mg/kg/injection, schedule: Q01DX005 (ip), vehicle: saline + Tween-80 + alcohol
  T/C: 119 % of control
dose: 100.0 mg/kg/injection, schedule: Q01DX005 (ip), vehicle: saline with Tween-80
  T/C: 122 % of control
dose: 200.0 mg/kg/injection, schedule: Q01DX005 (ip), vehicle: saline with Tween-80
  T/C: 106 % of control

## C=Cc1cc[n+](CC(=O)c2ccc(-c3ccccc3)cc2)cc1
[10]
  T/C: 103 % of control
[11]
  T/C: 90 % of control
[12]
  T/C: 92 % of control

## Cc1cccc2cc3ccccc3c[n+]12
dose: 6.25 mg/kg/injection, schedule: Q01DX005 (ip), vehicle: saline + Tween-80 + alcohol
  T/C: 101 % of control
dose: 12.5 mg/kg/injection, schedule: Q01DX005 (ip), vehicle: saline + Tween-80 + alcohol
  T/C: 101 % of control
dose: 25.0 mg/kg/injection, schedule: Q01DX005 (ip), vehicle: saline + Tween-80 + alcohol
  T/C: 101 % of control

## NCCNCCNCCNCCN (tested in a mixture with another compound)
dose: 25.0 mg/kg/injection, schedule: Q01DX009 (ip), vehicle: saline
  T/C: 118 % of control
[7]
  T/C: 118 % of control
[8]
  T/C: 100 % of control

## c1cc2cc(c1)CSCCCSCc1cccc(c1)CSCCCSC2
dose: 50.0 mg/kg/injection, schedule: Q04DX002 (ip), vehicle: saline
  T/C: 103 % of control
dose: 100.0 mg/kg/injection, schedule: Q04DX002 (ip), vehicle: saline
  T/C: 105 % of control
dose: 200.0 mg/kg/injection, schedule: Q04DX002 (ip), vehicle: saline
  T/C: 100 % of control

## CCCCC(C)C(=O)/C=C/c1ccccc1 (stereo not drawn)
[4]
  T/C: 107 % of control and 120 % of control
[5]
  T/C: 108 % of control and 118 % of control
[9]
  T/C: 120 % of control
dose: 400.0 mg/kg/injection, schedule: Q01DX009 (ip), vehicle: saline with Tween-80
  T/C: 117 % of control

## Cc1cccc(CNc2cccc(C)n2)n1
[2]
  T/C: 105 % of control
dose: 100.0 mg/kg/injection, schedule: Q01DX005 (ip), vehicle: saline
  T/C: 97 % of control

## CCCCCCCCCSCC
[4]
  T/C: 100 % of control
[5]
  T/C: 109 % of control
[6]
  T/C: 109 % of control
[9]
  T/C: 109 % of control
dose: 200.0 mg/kg/injection, schedule: Q04DX003 (ip), vehicle: saline with Tween-80
  T/C: 100 % of control
dose: 400.0 mg/kg/injection, schedule: Q04DX003 (ip), vehicle: saline with Tween-80
  T/C: 86 % of control

## COc1ccc2c(c1)OC(C)(C)C=C2
dose: 8.75 mg/kg/injection, schedule: Q01DX009 (ip), vehicle: saline with Tween-80
  T/C: 87 % of control
dose: 17.5 mg/kg/injection, schedule: Q01DX009 (ip), vehicle: saline with Tween-80
  T/C: 98 % of control
dose: 35.0 mg/kg/injection, schedule: Q01DX009 (ip), vehicle: saline with Tween-80
  T/C: 106 % of control
dose: 70.0 mg/kg/injection, schedule: Q01DX009 (ip), vehicle: saline with Tween-80
  T/C: 110 % of control
